Reference: patent US20260234164A1, “BIPHENYL COMPOUND AS IMMUNOMODULATOR, PREPARATION METHOD THEREFOR AND USE THEREOF” (SHENZHEN CHIPSCREEN BIOSCIENCES CO., LTD., priority 2021, published 2026)

Key:
[1] = Pharmacokinetic assay after repeated oral administration; type: in vivo, B-hPD-1/hPD-L1 mice; conditions: female, B-hPD-1/hPD-L1, mouse; plasma, 50 mg/kg oral once a day, after administration on the 18th day
Description: Twenty-four female B-hPD-1/hPD-L1 mice aged 6-8 weeks were purchased from Biocytogen Jiangsu Gene Biotechnology Co., Ltd. The mice were randomly divided into 4 groups, 6 mice in each group. The test compounds were prepared in a vehicle containing 5% DMSO, 60% PEG400 and 35% purified water, including I-1 and 3 control molecules Example 17, Compound 14 (INCB086550), and Example 180. The compounds were administered orally at 50 mg/kg, once a day. The blood was collected alternately through the fundus venous plexus after the administration on the 18th day. The blood collection time points were 15 min, 30 min, 1 h, 2 h, 4 h, 8h, 24 h and 32h. About 0.1 mL of blood was collected in a centrifuge tube (anticoagulated with sodium heparin), and centrifuged at 5000 rpm for 5 min. Then the plasma was separated, and frozen at −20° C. for later detection. After the plasma samples were processed, the concentration of the compounds in the plasma was determined by liquid chromatography-mass spectrometry (LC-MS/MS). The pharmacokinetic parameters were calculated using Phoenix WinNonlin 7.0.

[2] = Tumor tissue distribution assay in MC38-PD-L1 tumor-bearing mice; type: in vivo, B-hPD-1/hPD-L1 humanized mice; conditions: 50 mg/kg oral once/day; for concentration at 4 h / concentration at 24 h: female, B-hPD-1/hPD-L1 humanized, mouse, tumor tissue
Description: 16 B-hPD-1/hPD-L1 humanized female mice, aged 6-8 weeks were purchased from Biocytogen Jiangsu Gene Biotechnology Co., Ltd. After 1 week of adaptation, the mice were subcutaneously inoculated with MC38-PD-L1 cells at 2×10^6 cells/site. After the tumor grew to about […], the mice were divided into 4 groups, 4 mice in each group. The test compounds were formulated in a vehicle containing 5% DMSO, 60% PEG400 and 35% purified water, including I-1 and 3 control molecules Example 17, Compound 14 (INCB086550), and Example 180. The compounds were orally administered at 50 mg/kg, once/day. The blood and tumor tissue were collected 4 h and 24 h after administration on the 18th day. A certain amount of tissue was weighed, and added with phosphate-buffered saline (PBS) solution for homogenization. After the sample was processed, it was analyzed by LC-MS/MS to determine the concentration of the compound in plasma and tissue.

[3] = clinical studies; cited from earlier work
[4] = tested on: PD-1/PD-L1-mediated T cell activation inhibitory signal; experiment: CHO-PD-L1-CD3L / Jurkat-PD-1-NFAT co-culture luciferase reporter assay; type: cell-based; conditions: Homo sapiens, co-culture 6 h, read-out: EC50 blocking PD-1/PD-L1-mediated T cell activation inhibitory signal
Description: In order to detect the effect of the interaction between PD-1 and PD-L1 on T cell activation signals in the immune response, CHO-PD-L1-CD3L cells stably expressing human PD-L1 molecules and anti-CD3 single-chain antibody (ScFv) and Jurkat-PD-1-NFAT cells stably expressing human PD-1 molecule and NFAT reporter gene were constructed. When the two kinds of cells were co-incubated, the binding of anti-CD3ScFv on the surface of CHO cells and the membrane CD3 molecules of Jurkat cells would transmit an activation signal to Jurkat cells, but simultaneously, the binding of PD-L1 on the surface of CHO cells and PD-1 molecules on the surface of Jurkat cells would transmit an inhibitory signal inward to prevent expression of the luciferase reporter gene. When immune checkpoint antibodies or small molecule inhibitors were added, the binding of PD-1 and PD-L1 was blocked, the NFAT pathway activated by T cell activation signal mediated by cross-linking of CD3ScFv antibody and CD3 was no longer affected by the inhibitory signal, and the downstream luciferase reporter gene started to be expressed. A chemiluminescent signal proportional to reporter gene activation was detected by adding a catalytic substrate.
CHO-PD-L1-CD3L cells expressing human PD-L1 molecule and anti-CD3 single-chain antibody (ScFv) and Jurkat-PD-1-NFAT cells stably expressing human PD-1 molecule and NFAT reporter gene were independently constructed and provided by Dr. Chen Bo (KeyMed Bioscience (Chengdu) Co., Ltd.). Puromycin (Cat #540411) and Hygromycin B (Cat #V900372) for stable culture of transfected cells were purchased from Sigma, PMA (Cat #P1585) was purchased from Sigma, anti-human PD-L1 antibody (Cat #GMP-A066) was purchased from Novoprotein Company. Luciferase substrate solution (Cat #E6485) and luciferase-specific cell lysis solution 5× (Cat #E1531) were purchased from Promega. Fluorescence detection instrument Tecan (Spark 10M) was purchased from Switzerland Tecan Company.
(1) The day before the experiment, 100 μL of CHO-PD-L1-CD3L cells were inoculated in each well of a 96-well cell culture plate (about 4×10^4 cells/well) with a medium of DMEM/F12 containing 10% FBS, 8 μg/mL puromycin and 200 μg/mL hygromycin B, and cultured overnight at 37° C.
(2) The test compounds were diluted with 0.1% PBST into different concentration gradients, added into 96-well plates, and pre-incubated for 30 min. Jurkat-PD-1-NFAT cell count was adjusted to 2×10^5 cells/mL with the RPMI 1640 complete medium containing 10% FBS, […]8 μg/mL puromycin and 200 μg/mL hygromycin B. 100 ng/mL PMA (the stock solution was prepared with DMSO to a concentration of 10 mg/mL) was added to amplify T cell activation signal. 100 μL of the above Jurkat-PD-1-NFAT cells was added to each well of the 96-well plate for co-culture.
(3) When detecting the reaction, a control group was provided, including a solvent control without adding test compounds and a positive control with addition of anti-human PD-1 antibody as the experimental system. All detections were performed with duplicates.
(4) After continuous incubation at 37° C. for 6 h, 40 μL of 5× cell lysate was directly added, and mixed well. The plate was placed at room temperature for 10 min to completely lyse the cells. 50 μL of the lysed cell solution was transferred to a fluorescence detection plate, and added with 30 μL of luciferase substrate solution. The chemiluminescence detection program on the fluorescence detector was immediately selected for detection.
(5) The inhibition rate of T cell activation signal at the cellular level of the test compounds was calculated as follows: Inhibition rate of T cell activation signal (%)=(the original value of chemiluminescence in the detection well−solvent control)/(the highest original value of chemiluminescence detected in the compound detection well−solvent control)×100%. […]

[5] = 4 h after administration on the 18th day
[6] = 24 h after administration on the 18th day

| Compound | AUC(0-t) [1] | MRT [1] | half-life [1] | Ratio of I-1 to control molecule (tumor tissue concentration) [2, 5] | Ratio of I-1 to control molecule (tumor tissue concentration) [2, 6] | concentration at 4 h [2, 5] | concentration at 24 h [2, 6] | T1/2 [3] | EC50 [4] |
| --- | --- | --- | --- | --- | --- | --- | --- | --- | --- |
| Cn1c(C(=O)Nc2cccc(-c3cccc(NC(=O)c4nc5c(n4C)CCN(CCC46CCC(C(=O)O)(CC4)C6)C5)c3Cl)c2Cl)nc2c1CCN(CCC13CCC(C(=O)O)(CC1)C3)C2 [Example 17] | 67400 ng·h/mL | 5.8 h | 4.2 h | 7.8 | 27.2 | 5000 ng/g | 1000 ng/g | – | – |
| pembrolizumab: PD-1/PD-L1 antibody drug | – | – | – | – | – | – | – | 600 h | – |
| atezolizumab: PD-1/PD-L1 antibody drug | – | – | – | – | – | – | – | 648 h | – |
| [2H]c1c([2H])c(NC(=O)c2nc3c(n2C)CCN(CCC24CCC(COC)(CC2)C4)C3)c(F)c(-c2c([2H])c([2H])c([2H])c(NC(=O)c3nc4c(n3C)CCN(CCC35CCC(C(=O)O)(CC3)C5)C4)c2Cl)c1[2H] [Compound I-15, 4-(2-(2-((2-chloro-2′-fluoro-3′-(5-(2-(4-(methoxymethyl)bicyclo[2.2.1]heptane-1-yl)ethyl)-1-methyl-4,5,6,7-tetrahydro-1H-imidazo[4,5-c]pyridine-2-carboxamido)-[1,1′-biphenyl]-3-yl-4,4′,5,5′,6,6′-d6)carbamoyl)-1-methyl-1,4,6,7-tetrahydro-5H-imidazo[4,5-c]pyridin-5-yl)ethyl)bi cyclo[2.2.1]heptane-1-carboxylic acid] | – | – | – | – | – | – | – | – | 18.9 nM |
| Cc1c(Nc2nccc3cc(CN4CC[C@@H](O)C4)cnc23)cccc1-c1cccc(-c2nc3cc(CN4CC[C@@H](C(=O)O)C4)cc(C#N)c3o2)c1C [Compound 14 (INCB086550)] | 15800 ng·h/mL | 5.1 h | 3.9 h | 5.9 | 7.6 | 6600 ng/g | 3600 ng/g | – | – |
| nivolumab: PD-1/PD-L1 antibody drug | – | – | – | – | – | – | – | 605 h | – |
| Cn1c(C(=O)Nc2cccc(-c3cccc(NC(=O)c4nc5c(n4C)CCN(CC46CCC(C(=O)O)(CC4)C6)C5)c3Cl)c2Cl)nc2c1CCN(CCO)C2 [Example 180] | 33700 ng·h/mL | 5.6 h | 3.8 h | 8.7 | 30.2 | 4500 ng/g | 900 ng/g | – | – |
